Measurements published in patent US20250127719A1, “ANISAMIDE-CONTAINING LIPIDS AND COMPOSITIONS AND METHODS OF USE THEREOF” (The Trustees Of The University Of Pennsylvania, priority 2021, published 2025).

Key:
[1] = tested on: activated 3T3-GFP fibroblasts; test: Second-round screening: dependency on sigma receptor-mediated transfection (haloperidol pre-treatment); format: cell-based, murine; details: 30 μM haloperidol 2 h, then 50 nM siGFP LNP 48 h
Protocol: The top-performing LNPs were subjected to a second round of screening by evaluating their dependency on sigma receptor-mediated transfection. Activated 3T3-GFP cells were treated with or without haloperidol (30 μM) for 2 h before various LNPs loaded with siGFP (50 nM) were used to treat these cells for another 48 h. The GFP signal in each well was obtained as described above.

[2] = siRNA encapsulation efficiency, RiboGreen RNA assay; format: physicochemical; details: weight ratio of AA-T3A-C12:siRNA 10:1
Protocol: (§1) The hydrodynamic diameter, polydispersity index (PDI), and zeta potential of LNPs were measured using a Zetasizer Nano ZS90 (Malvern Instruments, Malvern, UK). The morphology of LNPs was characterized by transmission electron microscopy (JEOL 1010, Tokyo, Japan). The siRNA-LNP complex was analyzed by agarose gel electrophoresis. siRNA encapsulation efficiency was determined using a modified Quant-iT RiboGreen RNA assay (Invitrogen) as previously described. The pKa of LNP was determined by 6-(p-toluidinyl)naphthalene-2-sulfonic acid (TNS) assay as previously described.

[3] = Gel retardation assay (agarose gel electrophoresis); format: physicochemical; details: weight ratio of AA-T3A-C12:siRNA above 5:1; 500 ng siRNA per lane
Protocol: FIGS. 11A-11B depict optimization of the weight ratio of AA-T3A-C12 to siRNA. FIG. 11A: gel retardation assay. LNPs with different weight ratios of AA-T3A-C12:siRNA were analyzed by 1% agarose gel electrophoresis. 500 ng siRNA was loaded into each lane. […] FIG. 11B: RiboGreen RNA assay. The siRNA encapsulation efficiency reached a plateau of ˜90% when the weight ratio of AA-T3A-C12:siRNA was 10:1. Data are presented as mean±SD (n=3).
as §1

[4] = tested on: activated 3T3-GFP fibroblasts; test: High-throughput screening of LNPs: GFP knockdown, plate reader; format: cell-based, murine; details: 50 nM siGFP, 48 h post-treatment
Protocol: High-throughput screening of LNPs was performed by evaluating GFP knockdown efficiency in 96-well plates using a plate reader assay. 3T3-GFP cells were re-suspended in DMEM containing 10 ng/ml of TGF-β, and seeded into a 96-well plate at a density of 5,000 cells per well. After 24 h, activated cells were treated with various LNPs loaded with siGFP (50 nM). At 48 h post-treatment, the GFP signal in each well was obtained using an Infinite M Plex plate reader (Tecan, Morrisville, NC, USA) with an excitation of 488 nm and an emission of 520 nm. Cell viability was measured using a CellTiter-Glo Luminescent Cell Viability Assay according to the manufacturer's instruction (G7572, Promega).

Structure (SMILES)	change of GFP silencing activity after haloperidol (HP) treatment [1]	siRNA encapsulation efficiency plateau [2] [%]	free siRNA in gel retardation assay [3]	GFP knockdown [4] [%]
CCCCCCCCCCC(O)CN(CCCN(CCCNC(=O)c1ccc(OC)cc1)CCCN(CC(O)CCCCCCCCCC)CC(O)CCCCCCCCCC)CC(O)CCCCCCCCCC (stereo not shown) [AA-T3A-C12, N-(3-(bis(3-(bis(2-hydroxydodecyl)amino)propyl)amino)propyl)-4-methoxybenzamide]	the most significant loss of activity	~90	Little to no free siRNA was observed	–
CCCCCCCCCCC(O)CN(CCN(CCNC(=O)c1ccc(OC)cc1)CCN(CC(O)CCCCCCCCCC)CC(O)CCCCCCCCCC)CC(O)CCCCCCCCCC (stereo not shown) [AA-110-C12]	–	–	–	~70
